Measured values reported in patent US20050143927A1, “Method for estimating or predicting the anti-tumor activity of a compound and for estimating or predicting the tumor growth in mammals” (Pharmacia Italia S.p.A., priority 2002, published 2005).

Test system: GTL16 (human stomach carcinoma)
Assay: Tumor growth model for treated subjects, GTL16 inoculated subcutaneously in athymic nude mice (Experiment-A)
Assay type: in vivo
Excerpt: The cell line GTL16 (human stomach carcinoma) was inoculated subcutaneously on the back of 44 athymic nude male mice, initially weighing 17.9-28.1 g.
The dimensions of the tumor can be taken applying different types of measurements broadly classifiable as measurements of linear dimensions, of volume (or mass) and cell number. For tumors that maintain more or less a spherical morphology, as in the case of solid tumors, the measurement of the three principal diameters results the most adequate, as well as the most practiced solution. Nevertheless, in the case of subcutaneous tumors, the tumor can be considered of spherical shape only during the initial phase of growth; in the following phases, the dimension perpendicular to the skin is generally much smaller than the percutaneous dimensions, conferring to the mass a plaque-like shape or an hemi-ellipsoidal shape. In the experiments taken into consideration, only the dimensions of the two percutaneous diameters were directly measured with vernier calipers. The third dimension was not directly measured, because of the limited accessibility (which would have required a greater invasiveness), in the assumption that two measures were anyhow sufficient to guarantee a good approximation of the tumor mass (K. Rygaard and M. Spang-Thomsen, “Quantitation and Gompertzian analysis of tumor growth”. Breast Cancer Research and Treatment, 46: 303-312,1997).
The volume of a tumor can be indirectly calculated by applying the following empirical formula: [formula] where DMIN and DMAX denote, respectively, the smallest and the largest percutaneous diameter. Such empirical formula hypothesizes that the neoplasia has an ellipsoidal shape (D. A. Cameron, W. M. Gregory, A. Bowman, E. D. C. Anderson, P. Levack, P. Forouhi and R. F. C. Leonard, “Identification of long-term survivors in primary breast cancer by dynamic modeling of tumour response”. British Journal of Cancer, 83(1): 98-103, 2000, Hammond, L. A.; Hilsenbeck, S. G.; Eckhardt, S. G.; Marty, J; Mangold, G.; MacDonald, G. R.; Rowinsky, E. K.; Von Hoff, D. D; Weitman S. Enhanced antitumour activity of 6-hydroxymethylacylfulvene in combination with topotecan or paclitaxel in the MV522 lung carcinoma xenograft model. European Journal of Cancer 2000, 36, 2430-2436) obtained by the rotation of a hemi-ellipsoid (with DMIN and DMAX as axes of the percutaneous plane) around its largest axe. Assuming δ as a constant density equal to δ=10^−3g/mm^3, the empirical expression for the mass of the neoplasia results to be: [formula] The Measurement Error Model
As it regards the model of tumor growth, the error model above introduced is instead known. For the observed measurements of a generic quantity y (for instance the weight of the tumor), the constant coefficient of variation error model (3.5 and 3.6) asserts that the standard deviation of the error varies linearly with the dimension the measured quantity. With an error model of this kind, the technique of the weighed least squares (Weighed Least Squares, WLS), described in M. E. Dagna, “Identificazione di modelli farmacocinetici di popolazione”; Università degli Studi di Pavia 1999, herein incorporated as far as the WLS technique is concerned, is more adequate.

[1] = mean of the twelve treated mice (20, 30, 40 mg/kg q4dx3)
[2] = mouse 0, 20 mg/kg iv-bolus q4dx3
[3] = mouse 26, 40 mg/kg iv-bolus q4dx3
[4] = mouse 28, 30 mg/kg iv-bolus q4dx3
[5] = mouse 31, 20 mg/kg iv-bolus q4dx3
[6] = mouse 55, 20 mg/kg iv-bolus q4dx3
[7] = mouse 59, 30 mg/kg iv-bolus q4dx3
[8] = mouse 64, 30 mg/kg iv-bolus q4dx3
[9] = mouse 69, 20 mg/kg iv-bolus q4dx3
[10] = mouse 78, 40 mg/kg iv-bolus q4dx3
[11] = mouse 80, 40 mg/kg iv-bolus q4dx3
[12] = mouse 81, 40 mg/kg iv-bolus q4dx3
[13] = mouse 88, 30 mg/kg iv-bolus q4dx3
[14] = treated mouse 0, 20 mg/kg iv-bolus q4dx3
[15] = treated mouse 26, 40 mg/kg iv-bolus q4dx3
[16] = treated mouse 28, 30 mg/kg iv-bolus q4dx3
[17] = treated mouse 31, 20 mg/kg iv-bolus q4dx3
[18] = treated mouse 55, 20 mg/kg iv-bolus q4dx3
[19] = treated mouse 59, 30 mg/kg iv-bolus q4dx3
[20] = treated mouse 64, 30 mg/kg iv-bolus q4dx3
[21] = treated mouse 69, 20 mg/kg iv-bolus q4dx3
[22] = treated mouse 78, 40 mg/kg iv-bolus q4dx3
[23] = treated mouse 80, 40 mg/kg iv-bolus q4dx3
[24] = treated mouse 81, 40 mg/kg iv-bolus q4dx3
[25] = treated mouse 88, 30 mg/kg iv-bolus q4dx3

Compound: CC(=O)O[C@H]1C(=O)[C@@]2(C)[C@H]([C@H](OC(=O)c3ccccc3)[C@]3(O)C[C@H](OC(=O)[C@H](O)[C@@H](NC(=O)c4ccccc4)c4ccccc4)C(C)=C1C3(C)C)[C@]1(OC(C)=O)CO[C@@H]1C[C@@H]2O [Drug-A, paclitaxel]
- K1, mean [1]: 0.1879 day⁻¹
- K2, mean [1]: 0.002921 mL/g/day
- λ0, mean [1]: 0.2467
- λ1, mean [1]: 0.1274
- K1 (index of the tumor cells death rate) [2]: 0.2057 day⁻¹
- K2 (index of the potency of the compound) [2]: 0.01878 mL/g/day
- K1 (index of the tumor cells death rate) [3]: 0.1658 day⁻¹
- K2 (index of the potency of the compound) [3]: 0.00315 mL/g/day
- K1 (index of the tumor cells death rate) [4]: 0.1406 day⁻¹
- K2 (index of the potency of the compound) [4]: 0.000759 mL/g/day
- K1 (index of the tumor cells death rate) [5]: 0.2683 day⁻¹
- K2 (index of the potency of the compound) [5]: 0.003356 mL/g/day
- K1 (index of the tumor cells death rate) [6]: 0.2424 day⁻¹
- K2 (index of the potency of the compound) [6]: 0.002721 mL/g/day
- K1 (index of the tumor cells death rate) [7]: 0.192 day⁻¹
- K2 (index of the potency of the compound) [7]: 0.000563 mL/g/day
- K1 (index of the tumor cells death rate) [8]: 0.1646 day⁻¹
- K2 (index of the potency of the compound) [8]: 0.001085 mL/g/day
- K1 (index of the tumor cells death rate) [9]: 0.1515 day⁻¹
- K2 (index of the potency of the compound) [9]: 0.001361 mL/g/day
- K1 (index of the tumor cells death rate) [10]: 0.2056 day⁻¹
- K2 (index of the potency of the compound) [10]: 0.001507 mL/g/day
- K1 (index of the tumor cells death rate) [11]: 0.209 day⁻¹
- K2 (index of the potency of the compound) [11]: 0.000178 mL/g/day
- K1 (index of the tumor cells death rate) [12]: 0.2206 day⁻¹
- K2 (index of the potency of the compound) [12]: 0.000314 mL/g/day
- K1 (index of the tumor cells death rate) [13]: 0.08819 day⁻¹
- K2 (index of the potency of the compound) [13]: 0.001276 mL/g/day
- LAMBDA0 (production rate of tumor cells, exponential phase) [14]: 0.2601
- LAMBDA1 (tumor cells mass produced in the time unit, linear phase) [14]: 0.1563
- LAMBDA0 (production rate of tumor cells, exponential phase) [15]: 0.2087
- LAMBDA1 (tumor cells mass produced in the time unit, linear phase) [15]: 0.1678
- LAMBDA0 (production rate of tumor cells, exponential phase) [16]: 0.2396
- LAMBDA1 (tumor cells mass produced in the time unit, linear phase) [16]: 0.16
- LAMBDA0 (production rate of tumor cells, exponential phase) [17]: 0.2726
- LAMBDA1 (tumor cells mass produced in the time unit, linear phase) [17]: 0.08095
- LAMBDA0 (production rate of tumor cells, exponential phase) [18]: 0.2377
- LAMBDA1 (tumor cells mass produced in the time unit, linear phase) [18]: 0.07223
- LAMBDA0 (production rate of tumor cells, exponential phase) [19]: 0.2458
- LAMBDA1 (tumor cells mass produced in the time unit, linear phase) [19]: 0.07275
- λ0 (production rate of tumor cells, exponential phase) [20]: 0.2565
- λ1 (tumor cells mass produced in the time unit, linear phase) [20]: 0.18
- λ0 (production rate of tumor cells, exponential phase) [21]: 0.2464
- λ1 (tumor cells mass produced in the time unit, linear phase) [21]: 0.1782
- λ0 (production rate of tumor cells, exponential phase) [22]: 0.2438
- λ1 (tumor cells mass produced in the time unit, linear phase) [22]: 0.1276
- λ0 (production rate of tumor cells, exponential phase) [23]: 0.234
- λ1 (tumor cells mass produced in the time unit, linear phase) [23]: 0.05985
- λ0 (production rate of tumor cells, exponential phase) [24]: 0.2723
- λ1 (tumor cells mass produced in the time unit, linear phase) [24]: 0.0685
- λ0 (production rate of tumor cells, exponential phase) [25]: 0.2431
- λ1 (tumor cells mass produced in the time unit, linear phase) [25]: 0.2049
